Counter-ions that a name gives are not always drawn.
Legend:
Malassezia furfur 14521 = assay: Antifungal activity on M. furfur (resazurin viability, MIC and ΣFIC); format: cell-based; details: M. furfur 14521, YPD broth, 30° C., 72 hours, resazurin colour
Description: The samples as given in Table 1 were subjected to their anti fungal efficacy on M. furfur as described hereinafter.
The test organism used in the assay is Malassezia furfur 14521. The M. furfur were revived from glycerol stock in YPD agar plates (yeast extract peptone dextrose media) containing 1% corn oil. The composition of YPD is yeast extract:10 g/litre, dextrose 20 g/litre, Peptone 20 g/litre and agarose 0.15%. The plates were incubated at 30° C. for 72 hours for forming fungal colonies. A suspension culture of M. furfur was made using the colonies from plates in YPD broth. The optical density of the suspension culture was adjusted to 0.6 using spectrophotometer. This suspension was diluted in the ratio of 1:10 using YPD broth and 100 μl of this culture was added into each well of 96 well test plate. A stock solution of 40× strength of piroctone olamine was prepared for each of the concentrations tested eg for 0.0.001% test concentration of piroctone olamine a stock of 0.04% was prepared in DMSO (dimethyl sulphoxide). 5 μl of piroctone olamine was added to 100 μl of M. furfur culture. A stock solution of 4× strength of itaconic acid or sodium benzoate was prepared for each of the concentrations tested e.g. for 0.0.001% test concentration of itaconic acid or sodium benzote a stock of 0.004% was prepared in YPD broth. 50 μl of itaconic acid or sodium benzoate was added to 100 μl of M. furfur culture. In wells containing only one test ingredient, (itaconic acid or sodium benzoate only) 50 μl of test ingredient was added to 100 μl of fungal culture and then made up the volume to 200 μl with YPD broth. In wells containing only piroctone olamine 5 μl of piroctone olamine was added to 100 μl of fungal culture and then made up the volume to 200 μl with YPD broth. […] The anti-fungal efficacy of the ingredient or combination of ingredients is calculated based on the colour development. […]
The combinations of test ingredients with synergistic anti-fungal benefits were evaluated using ΣFIC method. The ΣFIC of the combinations were calculated using the following formula: […]

[1] = cited from earlier work

Row | Minimum inhibitory concentration (MIC) (Malassezia furfur 14521) | SMILES | solubility in 10% ethanol in water ([1]; 10% ethanol in water) | solubility in solution containing surfactants in water or in 1%-10% ethanol ([1]; solution containing surfactants in water or in 1%-10% ethanol)
1 | 0.5 wt % | C=C(CC(=O)OC)C(=O)OC [Dimethyl itaconate] | – | –
2 | 0.002 wt % | Cc1cc(CC(C)CC(C)(C)C)n(O)c(=O)c1 (centres unmarked) [Piroctone olamine, 1-Hydroxy-4-methyl-6-(2,4,4-trimethylpentyl)-2-(1H)pyridinone,2-aminoethanol salt] | soluble | soluble

Row | SMILES | Minimum inhibitory concentration (MIC) (Malassezia furfur 14521) | solubility in 10% ethanol in water ([1]; 10% ethanol in water) | solubility in solution containing surfactants in water or in 1%-10% ethanol ([1]; solution containing surfactants in water or in 1%-10% ethanol)
3 | O=C([O-])c1ccccc1.[Na+] [Sodium benzoate] | 0.5 wt % | – | –
